Measured values taken from patent publication US11905244B2, “Chemical modulators of store-operated calcium channels and their therapeutic applications” (The Texas A&M University System, priority 2017, dated 2024).
pIC50: −log10 of the molar value.

Each molecule was assayed against CRAC channel (Homo sapiens (Human), UniProt Q96D31) (assay: GFP-NFAT translocation-based high-content screening (TG-stimulated HeLa cells stably expressing GFP-NFAT)). Settings: 200 μM compound.
CRAC channel, sequence (Q96D31 whole entry): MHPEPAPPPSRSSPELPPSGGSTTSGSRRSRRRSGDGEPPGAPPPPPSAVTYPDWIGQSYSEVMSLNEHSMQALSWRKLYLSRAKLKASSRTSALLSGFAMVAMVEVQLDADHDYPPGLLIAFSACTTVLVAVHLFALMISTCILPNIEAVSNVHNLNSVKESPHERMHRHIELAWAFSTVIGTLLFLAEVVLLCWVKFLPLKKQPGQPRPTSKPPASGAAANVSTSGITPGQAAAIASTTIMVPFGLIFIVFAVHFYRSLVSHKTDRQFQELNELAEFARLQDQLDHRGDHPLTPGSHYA
Format: cell-based
Source text: It is known that thapsigargin (TG) can induce the CRAC channel to open resulting in the calcium influx. The elevation of calcium in cytoplasm can activate the Ca^2+-calcineurin-NFAT pathway followed by NFAT translocation from the cytoplasm to the nucleus to regulate gene transcription. Therefore, the inventors built a GFP-NFAT translocation-based high-content screening method to evaluate the activity of compounds on CRAC channel. Briefly, a HeLa cell line stably expressing GFP-NFAT was established and used, and the images after chemical stimulation in the presence of TG were acquired using an IN Cell Analyzer 6000 confocal laser imaging system, and then the GFP fluorescent intensity ratio between cytoplasm and nucleus was analyzed to reflect the inhibitory activity of compound on CRAC channel.
Briefly, GFP-NFAT stable cells were cultured in Dulbecco's modified eagle's medium (DMEM) supplemented with 10% FBS in 5% carbon dioxide at 37° C. When it reached 90% confluency, a cell suspension with a concentration of […] was prepared, and an amount of 2000 cells per well (25 μL/well) was seeded in 384 well plate, putting it at the room temperature for 1 h to make sure the cells distribute evenly, then the cells were incubated overnight. First, primary screening of the selected compounds was conducted. A series of compound solutions with a concentration of 200 μM in MEDM medium were prepared in a 96 well plate and then added to a 384 well plate using a Beckman Coulter automatic drug adding system, in 4 duplicates, and incubated for 30 min at 37° C. SKF was selected as the positive control. Then, 1 μM TG and 1 mM Ca^2+ were added to 384-well plate using Beckman Coulter automatic drug adding system and incubated for 20 min. Subsequently, 384 well plate was gently washed with PBS twice, and the cells were fixed with 4% PFA (25 μl per well) for 10˜15 mins at room temperature, then washed with PBS gently, added 0.5% Triton X-100 (25 μL per well), and incubated for 5 mins aFt room temperature, stained with DAPI (1 μg/mL) for 5˜10 mins at room temperature, washed with PBS and added 30 μL PBS per well to image on confocal laser imaging system (objective lens: 10×, FITC and UV). Using Pipeline Plot software (NAFT translocation protocol), the intensity of green fluorescence was analyzed in nucleus and cytosol, calculate the ratio of nucleus:cytosol, normalize TG stimulate NFAT translocation as 1 and no TG adding as 0. Finally, the data was analyzed using GraphPad Prism 5 software.
In the case of `CN/C(=N/c1cc(Cl)ccc1Cl)SC1CC(=O)N(c2ccc(C(=O)OC)cc2)C1=O` (centres unmarked) [Compound 65], the “Inhibitory activity on CRAC channel in primary screening (NFAT nucleus-to-cytosol ratio)” value was “good inhibition”.
`CCN/C(=N/c1ccc2c(c1)OCO2)SC1CC(=O)N(c2ccc(C(=O)OC)cc2)C1=O` (centres unmarked) [Compound 66] was tested, and the “Inhibitory activity on CRAC channel in primary screening (NFAT nucleus-to-cytosol ratio)” value was “good inhibition”.

Same assay, conditions: Table 2; unit inferred; read-out: IC50 of the compounds (inhibitory activity on CRAC channel)
`CN/C(=N/c1cc(Cl)ccc1Cl)SC1CC(=O)N(c2ccc(C(=O)OC)cc2)C1=O` (centres unmarked) [Compound 65] was tested, and the pIC50 was 4.51.
Molecule `CCN/C(=N/c1ccc2c(c1)OCO2)SC1CC(=O)N(c2ccc(C(=O)OC)cc2)C1=O` (centres unmarked) [Compound 66] has a pIC50 of 4.98.
Molecule `COC(=O)c1ccc(N2C(=O)CC(S/C(=N/c3ccccc3)NC(C)C)C2=O)cc1` (centres unmarked) [Compound 79] has a pIC50 of 4.93.
`COC(=O)c1ccc(N2C(=O)CC(S/C(=N/c3ccccc3)NC3CC3)C2=O)cc1` (centres unmarked) [Compound 80] gave a pIC50 of less than 3.70.
`COC(=O)c1ccc(N2C(=O)CC(S/C(=N/c3ccccc3)NC(C)(C)C)C2=O)cc1` (centres unmarked) [Compound 81] was tested, and the pIC50 was less than 3.70.
`CCOC(=O)c1ccc(N2C(=O)CC(S/C(=N/c3ccccc3)NC)C2=O)cc1` (centres unmarked) [Compound 82] showed a pIC50 of 4.65.
`CCN/C(=N\c1ccccc1)SC1CC(=O)N(c2ccc(C(=O)OCC)cc2)C1=O` (centres unmarked) [Compound 83] was tested, and the pIC50 was less than 3.70.
Work on `CCCN/C(=N\c1ccccc1)SC1CC(=O)N(c2ccc(C(=O)OCC)cc2)C1=O` (centres unmarked) [Compound 84] yielded a pIC50 of less than 3.70.
In the case of `CCCCN/C(=N\c1ccccc1)SC1CC(=O)N(c2ccc(C(=O)OCC)cc2)C1=O` (centres unmarked) [Compound 85], the pIC50 was less than 3.70.
For `CCOC(=O)c1ccc(N2C(=O)CC(S/C(=N/c3ccccc3)NC(C)C)C2=O)cc1` (centres unmarked) [Compound 86], the pIC50 was 5.20.
Work on `CCOC(=O)c1ccc(N2C(=O)CC(S/C(=N/c3ccccc3)NC(C)(C)C)C2=O)cc1` (centres unmarked) [Compound 88] yielded a pIC50 of less than 3.70.
For `CNC(=O)c1ccc(N2C(=O)CC(S/C(=N/c3ccccc3)NC)C2=O)cc1` (centres unmarked) [Compound 89], the pIC50 was less than 3.70.
For `CCN/C(=N\c1ccccc1)SC1CC(=O)N(c2ccc(C(=O)NC)cc2)C1=O` (centres unmarked) [Compound 90], the pIC50 was less than 3.70.
`CCCN/C(=N\c1ccccc1)SC1CC(=O)N(c2ccc(C(=O)NC)cc2)C1=O` (centres unmarked) [Compound 91] gave a pIC50 of less than 3.70.
For `CCCCN/C(=N\c1ccccc1)SC1CC(=O)N(c2ccc(C(=O)NC)cc2)C1=O` (centres unmarked) [Compound 92], the pIC50 was less than 3.70.
In the case of `CNC(=O)c1ccc(N2C(=O)CC(S/C(=N/c3ccccc3)NC(C)C)C2=O)cc1` (centres unmarked) [Compound 93], the pIC50 was less than 3.70.
With `CNC(=O)c1ccc(N2C(=O)CC(S/C(=N/c3ccccc3)NC3CC3)C2=O)cc1` (centres unmarked) [Compound 94] the pIC50 was less than 3.70.
For `CNC(=O)c1ccc(N2C(=O)CC(S/C(=N/c3ccccc3)NC(C)(C)C)C2=O)cc1` (centres unmarked) [Compound 95], the pIC50 was less than 3.70.
In the case of `NS(=O)(=O)c1ccc(CCN/C(=N\c2ccccc2)SC2CC(=O)N(c3ccccc3)C2=O)cc1` (centres unmarked) [Compound 96], the pIC50 was 4.96.
Molecule `NS(=O)(=O)c1ccc(CCNC(=S)Nc2cccnc2)cc1` [Compound 97] has a pIC50 of less than 3.70.
`COC(=O)c1ccc(N2C(=O)CC(S/C(=N/c3cc(OC)ccc3OC)NCCc3ccc(S(N)(=O)=O)cc3)C2=O)cc1` (centres unmarked) [Compound 98] showed a pIC50 of 4.67.
`CNC(=O)c1ccc(N2C(=O)CC(S/C(=N/c3ccccc3)NCCc3ccc(S(N)(=O)=O)cc3)C2=O)cc1` (centres unmarked) [Compound 99] showed a pIC50 of 4.74.
In the case of `COC(=O)c1ccc(N2C(=O)CC(S/C(=N/c3ccc(OC)cc3)NCCc3ccc(S(N)(=O)=O)cc3)C2=O)cc1` (centres unmarked) [Compound 100], the pIC50 was 4.83.
In the case of `COC(=O)c1ccc(N2C(=O)CC(S/C(=N/c3cccc(OC)c3)NCCc3ccc(S(N)(=O)=O)cc3)C2=O)cc1` (centres unmarked) [Compound 101], the pIC50 was 4.95.
For `COC(=O)c1ccc(N2C(=O)CC(S/C(=N/c3ccc(C)cc3)NCCc3ccc(S(N)(=O)=O)cc3)C2=O)cc1` (centres unmarked) [Compound 102], the pIC50 was 5.04.
In the case of `CCOC(=O)c1ccc(N2C(=O)CC(S/C(=N/c3ccccc3)NCCc3ccc(S(N)(=O)=O)cc3)C2=O)cc1` (centres unmarked) [Compound 103], the pIC50 was 4.80.
Molecule `NS(=O)(=O)c1ccc(CCNC(=S)Nc2cccc3ccccc23)cc1` [Compound 104] has a pIC50 of less than 3.70.
For `COc1ccc(N2C(=O)CC(S/C(=N/c3ccc(C)cc3)NCCc3ccc(S(N)(=O)=O)cc3)C2=O)cc1` (centres unmarked) [Compound 105], the pIC50 was less than 3.70.
Molecule `COc1ccc(N2C(=O)CC(S/C(=N/c3ccccc3)NCCc3ccc(S(N)(=O)=O)cc3)C2=O)cc1` (centres unmarked) [Compound 106] has a pIC50 of 5.30.
`CCOC(=O)c1ccc(N2C(=O)CC(S/C(=N/c3ccc(OC)cc3)NCCc3ccc(S(N)(=O)=O)cc3)C2=O)cc1` (centres unmarked) [Compound 107] gave a pIC50 of less than 3.70.
Molecule `COc1ccc(/N=C(\NCCc2ccc(S(N)(=O)=O)cc2)SC2CC(=O)N(c3ccc(OC)cc3)C2=O)cc1` (centres unmarked) [Compound 108] has a pIC50 of less than 3.70.
Work on `COc1ccc(N2C(=O)CC(S/C(=N/c3cc(OC)ccc3OC)NCCc3ccc(S(N)(=O)=O)cc3)C2=O)cc1` (centres unmarked) [Compound 109] yielded a pIC50 of less than 3.70.
`CCOC(=O)c1ccc(N2C(=O)CC(S/C(=N/c3cc(OC)ccc3OC)NCCc3ccc(S(N)(=O)=O)cc3)C2=O)cc1` (centres unmarked) [Compound 110] was tested, and the pIC50 was less than 3.70.
Work on `COc1ccc(/N=C(\NCCc2ccc(S(N)(=O)=O)cc2)SC2CC(=O)N(c3ccccc3)C2=O)cc1` (centres unmarked) [Compound 111] yielded a pIC50 of 5.80.
`COc1ccc(OC)c(/N=C(\NCCc2ccc(S(N)(=O)=O)cc2)SC2CC(=O)N(c3ccccc3)C2=O)c1` (centres unmarked) [Compound 112] showed a pIC50 of 6.70.
`Cc1ccc(/N=C(\NCCc2ccc(S(N)(=O)=O)cc2)SC2CC(=O)N(c3ccccc3)C2=O)cc1` (centres unmarked) [Compound 113] gave a pIC50 of 5.23.
For `COc1ccc(/N=C(\NCCc2ccc(S(N)(=O)=O)cc2)SC2CC(=O)N(c3ccc(C)cc3)C2=O)cc1` (centres unmarked) [Compound 114], the pIC50 was less than 3.70.
`Cc1ccc(/N=C(\NCCc2ccc(S(N)(=O)=O)cc2)SC2CC(=O)N(c3ccc(C)cc3)C2=O)cc1` (centres unmarked) [Compound 115] was tested, and the pIC50 was 5.23.
Molecule `CCOC(=O)c1ccc(N2C(=O)CC(S/C(=N/c3ccc(C)cc3)NCCc3ccc(S(N)(=O)=O)cc3)C2=O)cc1` (centres unmarked) [Compound 116] has a pIC50 of less than 3.70.
With `CCOC(=O)c1ccc(N2C(=O)CC(Sc3nc4ccccc4n3CCc3ccc(S(N)(=O)=O)cc3)C2=O)cc1` (centres unmarked) [Compound 117] the pIC50 was less than 3.70.
In the case of `COc1ccc(N2C(=O)CC(Sc3nc4ccccc4n3CCc3ccc(S(N)(=O)=O)cc3)C2=O)cc1` (centres unmarked) [Compound 118], the pIC50 was less than 3.70.
`Cc1ccc(N2C(=O)CC(Sc3nc4ccccc4n3CCc3ccc(S(N)(=O)=O)cc3)C2=O)cc1` (centres unmarked) [Compound 119] showed a pIC50 of less than 3.70.
`COc1ccc(N2C(=O)CC(Br)C2=O)cc1` (centres unmarked) [Compound 120] showed a pIC50 of less than 3.70.

The molecules below were run on MDA-MB-231 breast cancer cells (assay: Migration assay (wound healing assay)). Settings: MDA-MB-231, wound healing assay.
Format: cell-based
Procedure: The effect of compounds on inhibiting migration was evaluated using wound healing assay. Briefly, cells were seeded in a six well-plate, and a wound was generated by scratching the cell monolayer with a 200 μL pipette tip. Then, cells were continued to be cultured in the presence or absence of compounds, and the photographic recording was performed at 0 h, 24 h, and 48 h respectively. The number of the migrated cells was calculated with ImageJ software.
For `CN/C(=N/c1cc(Cl)ccc1Cl)SC1CC(=O)N(c2ccc(C(=O)OC)cc2)C1=O` (centres unmarked) [Compound 65], the Cell migration was “greatly inhibit”.
`CCN/C(=N/c1ccc2c(c1)OCO2)SC1CC(=O)N(c2ccc(C(=O)OC)cc2)C1=O` (centres unmarked) [Compound 66] was tested, and the Cell migration was “greatly inhibit”.
